Data as given in patent US20230322846A9, “NEUROACTIVE STEROIDS AND THEIR METHODS OF USE” (SAGE THERAPEUTICS, INC., priority 2018, published 2023).

target: [35S]-TBPS binding, rat brain cortical membranes; assay: Steroid inhibition of [35S]-TBPS binding; conditions: 3 nM [35S]-TBPS, in the presence of 5 mM GABA
Experimental: [^35S]-t-Butylbicyclophosphorothionate (TBPS) binding assays using rat brain cortical membranes in the presence of 5 mM GABA has been described (Gee et al, J. Pharmacol. Exp. Ther. 1987, 241, 346-353; Hawkinson et al, Mol. Pharmacol. 1994, 46, 977-985; Lewin, A. H et al., Mol. Pharmacol. 1989, 35, 189-194).
Briefly, cortices are rapidly removed following decapitation of carbon dioxide-anesthetized Sprague-Dawley rats (200-250 g). The cortices are homogenized in 10 volumes of ice-cold 0.32 M sucrose using a glass/teflon homogenizer and centrifuged at 1500×g for 10 min at 4° C. The resultant supernatants are centrifuged at 10,000×g for 20 min at 4° C. to obtain the P2 pellets. The P2 pellets are resuspended in 200 mM NaCl/50 mM Na—K phosphate pH 7.4 buffer and centrifuged at 10,000×g for 10 min at 4° C. This washing procedure is repeated twice and the pellets are resuspended in 10 volumes of buffer. Aliquots ([…]) of the membrane suspensions are incubated with 3 nM [^35S]-TBPS and […] aliquots of test drug dissolved in dimethyl sulfoxide (DMSO) (final 0.5%) in the presence of 5 mM GABA. The incubation is brought to a final volume of 1.0 mL with buffer. Nonspecific binding is determined in the presence of […] and ranged from 15 to 25%. Following a 90 min incubation at room temp, the assays are terminated by filtration through glass fiber filters (Schleicher and Schuell No. 32) using a cell harvester (Brandel) and rinsed three times with ice-cold buffer. Filter bound radioactivity is measured by liquid scintillation spectrometry. Non-linear curve fitting of the overall data for each drug averaged for each concentration is done using Prism (GraphPad). […] The concentration of test compound producing 50% inhibition (IC50) of specific binding and the maximal extent of inhibition (Imax) are determined for the individual experiments with the same model used for the overall data and then the means±SEM.s of the individual experiments are calculated.
Various compounds are or can be screened to determine their potential as modulators of [^35S]-TBPS binding in vitro. These assays are or can be performed in accordance with the above

First: COC[C@@]1(O)CC[C@H]2[C@H](CC[C@@H]3[C@@H]2CC[C@]2(C)[C@@H]([C@H](C)Nc4ccc(C#N)cc4)CC[C@@H]32)C1 [Example 257]
Second: COC[C@@]1(O)CC[C@H]2[C@H](CC[C@@H]3[C@@H]2CC[C@]2(C)[C@@H]([C@H](C)NC(=O)c4ccc(C#N)cn4)CC[C@@H]32)C1 [Example 32, 5-cyano-N—((S)-1-((3R,5R,8R,9R,10S,13S,14S,17S)-3-hydroxy-3-(methoxymethyl)-13-methylhexadecahydro-1H-cyclopenta[a]phenanthren-17-yl)ethyl)picolinamide]
The IC50 of the first is lower: 100 to 1000 nM for the first, 1000 to 10000 nM for the second.

First: CCC[C@@]1(O)CC[C@@]2(C)[C@H](CC[C@@H]3[C@@H]2CC[C@]2(C)[C@@H]([C@H](C)Cn4nnnc4C)CC[C@@H]32)C1 [Example 316, (3R,5R,8R,9S,10S,13S,14S,17R)-10,13-dimethyl-17-((S)-1-(5-methyl-1H-tetrazol-1-yl)propan-2-yl)-3-propylhexadecahydro-1H-cyclopenta[a]phenanthren-3-ol]
Second: CC[C@@]1(O)CC[C@@]2(C)[C@@H](CC[C@@H]3[C@@H]2CC[C@]2(C)[C@@H]([C@@H](C)Cn4nnc(C)n4)CC[C@@H]32)C1 [Example 359, (3R,5S,8R,9S,10S,13S,14S,17R)-3-ethyl-10,13-dimethyl-17-((R)-1-(5-methyl-2H-tetrazol-2-yl)propan-2-yl)hexadecahydro-1H-cyclopenta[a]phenanthren-3-ol]
The IC50 of the first is lower: < 100 nM for the first, ≥ 10000 nM for the second.

First: C[C@@H]([C@H]1CC[C@H]2[C@@H]3CC[C@@H]4C[C@](C)(O)CC[C@@H]4[C@H]3CC[C@]12C)n1nccn1 [Example 164, (3R,5R,8R,9R,10S,13S,14S,17S)-17-((S)-1-(2H-1,2,3-triazol-2-yl)ethyl)-3,13-dimethylhexadecahydro-1H-cyclopenta[a]phenanthren-3-ol]
Second: C[C@@H](Cc1nccc(C#N)n1)[C@H]1CC[C@H]2[C@@H]3CC[C@@H]4C[C@](C)(O)CC[C@@H]4[C@H]3CC[C@]12C [Example 435]
The IC50 of the first is higher: 1000 to 10000 nM for the first, < 100 nM for the second. The second is the more potent here.

First: C[C@H](NC(=O)c1ccc(F)cn1)[C@H]1CC[C@H]2[C@@H]3CC[C@@H]4C[C@](C)(O)CC[C@@H]4[C@H]3CC[C@]12C [Example 124]
Second: C[C@H](NC(=O)c1cccnc1)[C@H]1CC[C@H]2[C@@H]3CC[C@@H]4C[C@](C)(O)CC[C@@H]4[C@H]3CC[C@]12C [Example 30, N—((S)-1-((3R,5R,8R,9R,10S,13S,14S,17S)-3-hydroxy-3,13-dimethylhexadecahydro-1H-cyclopenta[a]phenanthren-17-yl)ethyl)nicotinamide]
The IC50 of the first is lower: 100 to 1000 nM for the first, 1000 to 10000 nM for the second. The first is the more potent here.

`C[C@H]([C@H]1CC[C@H]2[C@@H]3CC[C@@H]4C[C@](C)(O)CC[C@@H]4[C@H]3CC[C@]12C)N(C)c1ccccc1` [Example 38, (3R,5R,8R,9R,10S,13S,14S,17S)-3,13-dimethyl-17-((R)-1-(methyl(phenyl)amino)ethyl)hexadecahydro-1H-cyclopenta[a]phenanthren-3-ol] and `C[C@H](Nc1cccc(C#N)c1)[C@H]1CC[C@H]2[C@@H]3CC[C@@H]4C[C@](C)(O)CC[C@@H]4[C@H]3CC[C@]12C` [Example 201] fall in the same range of IC50: 100 to 1000 nM for the first, 100 to 1000 nM for the second.

`CCOC[C@@]1(O)CC[C@H]2[C@H](CC[C@@H]3[C@@H]2CC[C@]2(C)[C@@H]([C@@H](C)NS(=O)(=O)c4ccc(C#N)cc4)CC[C@@H]32)C1` [Example 67, 4-cyano-N—((R)-1-((3R,5R,8R,9R,10S,13S,14S,17S)-3-(ethoxymethyl)-3-hydroxy-13-methylhexadecahydro-1H-cyclopenta[a]phenanthren-17-yl)ethyl)benzenesulfonamide] and `CCOC[C@@]1(O)CC[C@H]2[C@H](CC[C@@H]3[C@@H]2CC[C@]2(C)[C@@H]([C@@H](C)Nc4cccnc4F)CC[C@@H]32)C1` [Example 262] cannot be ordered by IC50: < 100 nM for the first, < 100 nM for the second.

First: CC[C@@H](Nc1cccc(C#N)c1)[C@H]1CC[C@H]2[C@@H]3CC[C@@H]4C[C@@](O)(COC)CC[C@@H]4[C@H]3CC[C@]12C [Example 497, 3-(((R)-1-((3R,5R,8R,9R,10S,13S,14S,17S)-3-hydroxy-3-(methoxymethyl)-13-methylhexadecahydro-1H-cyclopenta[a]phenanthren-17-yl)propyl)amino)benzonitrile]
Second: COC[C@@]1(O)CC[C@H]2[C@H](CC[C@@H]3[C@@H]2CC[C@]2(C)[C@@H]([C@@H](C)N4Cc5cc(C#N)ccc5C4=O)CC[C@@H]32)C1 [Example 44, 2-((R)-1-((3R,5R,8R,9R,10S,13S,14S,17S)-3-hydroxy-3-(methoxymethyl)-13-methylhexadecahydro-1H-cyclopenta[a]phenanthren-17-yl)ethyl)-1-oxoisoindoline-5-carbonitrile]
The IC50 of the first is higher: 100 to 1000 nM for the first, < 100 nM for the second.

First: CCC[C@@]1(O)CC[C@@]2(C)[C@H](CC[C@@H]3[C@@H]2[C@H](O)C[C@]2(C)[C@@H]([C@@H](C)Cn4cc(C#N)cn4)CC[C@@H]32)C1 [Example 337, 1-((R)-2-((3R,5R,8S,9S,10S,11R,13S,14S,17R)-3,11-dihydroxy-10,13-dimethyl-3-propylhexadecahydro-1H-cyclopenta[a]phenanthren-17-yl)propyl)-1H-pyrazole-4-carbonitrile]
Second: CC(C)C[C@@]1(O)CC[C@H]2[C@H](CC[C@@H]3[C@@H]2CC[C@]2(C)[C@@H]([C@H](C)Cn4cc(C#N)cn4)CC[C@@H]32)C1 [Example 300, 1-((S)-2-((3S,5R,8R,9R,10S,13S,14S,17R)-3-hydroxy-3-isobutyl-13-methylhexadecahydro-1H-cyclopenta[a]phenanthren-17-yl)propyl)-1H-pyrazole-4-carbonitrile]
The IC50 of the first is higher: 100 to 1000 nM for the first, < 100 nM for the second. The second is the more potent here.

Compared with `COC[C@@]1(O)CC[C@H]2[C@H](CC[C@@H]3[C@@H]2CC[C@]2(C)[C@@H](CCn4nnc(C)n4)CC[C@@H]32)C1` [Example 47, (3R,5R,8R,9R,10S,13R,14S,17R)-3-(methoxymethyl)-13-methyl-17-(2-(5-methyl-2H-tetrazol-2-yl)ethyl)hexadecahydro-1H-cyclopenta[a]phenanthren-3-ol], `CCC[C@@]1(O)CC[C@H]2[C@@H](CC[C@@H]3[C@@H]2CC[C@]2(C)[C@@H]([C@H](C)Cn4nnc(C)n4)CC[C@@H]32)C1` [Example 330, (3R,5S,8R,9R,10S,13S,14S,17R)-13-methyl-17-((S)-1-(5-methyl-2H-tetrazol-2-yl)propan-2-yl)-3-propylhexadecahydro-1H-cyclopenta[a]phenanthren-3-ol] is higher in IC50: < 100 nM for the first, ≥ 10000 nM for the second. The first is the more potent here.

First: COc1ccc(C(=O)N[C@@H](C)[C@H]2CC[C@H]3[C@@H]4CC[C@@H]5C[C@](C)(O)CC[C@@H]5[C@H]4CC[C@]23C)cc1 [Example 107]
Second: COC[C@@]1(O)CC[C@H]2[C@H](CC[C@@H]3[C@@H]2CC[C@]2(C)[C@@H]([C@H](C)Cc4cnc(C)cn4)CC[C@@H]32)C1 [Example 423]
The IC50 of the first is higher: 1000 to 10000 nM for the first, 100 to 1000 nM for the second. The second is the more potent here.
